Experiments:
[1] = system: SOD1-G93A transgenic mice; assay: In vivo analysis: survival of SOD1-G93A transgenic mice; settings: 60-day-old SOD1-G93A transgenic mice, oral administration, 500 mg/kg-body weight once daily; for Survival days: n = 8, untreated control 127 ± 6.11, 500 mg/kg
From the text: It has been known that about 20% of amyotrophic lateral sclerosis patients were associated with mutations in the gene that encodes Cu/Zn superoxide dismutase enzyme (SOD1), and G93A was the major mutation site. […] A SOD1-G93A transgenic mouse will show the symptoms of amyotrophic lateral sclerosis within about 90±5 days postnatal and will die within about 125±5 days postnatal.
This example used the above SOD1-G93A transgenic mice as the object of study to perform in vivo analysis. SOD1-G93A transgenic mice (60-day-old) were treated with butylidenephthalide (purchased from ECHO Chemical) by oral administration, with a dosage of 500 mg/ kg-body weight once daily, wherein the unit "mg/kg-body weight" means the dosage required per kg-body weight. […]

[2] = system: SOD1-G93A transgenic mice; assay: In vivo analysis: BBB Locomotor Rating Scale of the hind limbs; settings: oral 500 mg/kg-body weight once daily from day 60
Description: SOD1-G93A transgenic mice (60-day-old) were treated with butylidenephthalide by oral administration, with a dosage of 500 mg/ kg-body weight once daily. After the mice were treated for 30 days, the hind limbs of the mice were examined by BBB scale (Basso, Beattie, and Bresnahan (BBB) Locomotor Rating Scale). The BBB scale of the hind limbs of normal mice was 21 points, while the BBB scale of disease-progressed SOD1-G93A transgenic mice decreased from 21 to 0 points, wherein the lower scale represents a more severe action disorder in the mice. BBB scale is used to record the drug efficiency.

[3] = system: SOD1-G93A transgenic mice; assay: Histochemical staining (hematoxylin and eosin): count of spinal motor neurons; format: in vivo; settings: spinal cord, mice sacrificed in extremis
Description: SOD1-G93A transgenic mice (60-day-old) were treated with butylidenephthalide by oral administration, with a dosage of 500 mg/ kg-body weight once daily. The SOD1-G93A transgenic mice in the experimental group were sacrificed in extremis, and the spinal cord was collected to perform hematoxylin and eosin stain. The number of motor neurons in the spinal cord was observed and counted by using a microscope, and the data was compared with that of the untreated control group.

[4] = system: LC3-II; assay: Western blotting of autophagy biomarker in spinal cord; format: in vivo, mice; settings: cervical, thoracic and lumbar spinal cord, compared with untreated control; oral 500 mg/kg-body weight once daily; β-actin internal control
Description: SOD1-G93A transgenic mice (60-day-old) were treated with butylidenephthalide by oral administration, with a dosage of 500 mg/ kg-body weight once daily. It has been indicated by research that SOD1-G93A transgenic mice lost its spinal motor neurons because of the significant increase of autophagy during the last phase of amyotrophic lateral sclerosis (which can be seen in In vivo optical imaging of motor neuron autophagy in a mouse model of amyotrophic lateral sclerosis. Autophagy 7:9, 1-8; September 2011, which is entirely incorporated hereinto by reference). Therefore, in this example, the SOD1-G93A transgenic mice in experimental group were sacrificed in extremis to collect their spinal cord, and the proteins were extracted from the spinal cord to perform Western blotting and to analyze the protein biomarker of autophagy, LC3-II, which was used to determine whether autophagy occurred in the lumbar spinal motor neurons of the mice, wherein β-actin was used as an internal control.

[5] = system: LC3-II; assay: Cellular experiment: Western blotting of LC3-II in NSCs after H2O2 stimulation of autophagy; format: cell-based, mouse; settings: 10 µg/mL for 12 hours, then H2O2 (2500 µM/mL) for 12 hours
Description: Cellular experiment was performed by using NSCs (neural stem cells) which can differentiate into mouse motor neurons to imitate mouse motor neurons.
NSCs were incubated in a culture dish (10 cm in diameter). The cells were washed with PBS when grown to a density of 60% confluence, and treated with different concentrations of butylidenephthalide for 12 hours. The cells were then treated with H2O2 (2500 µM/mL) for 12 hours to stimulate the autophagy of cells. Then, the cells were collected and the proteins were extracted, and the protein expression level of LC3-II in NSC was analyzed by SDS-PAGE and Western blotting.

## CCCC=C1OC(=O)c2ccccc21 [butylidenephthalide]
[1]
  life lengthened as compared to the untreated control group: about 22 ± 2 days
  Survival days: about 149 ± 4.39 days
[1]; listed as n-BP
  Survival days: 149 ± 4.39 days
[2]; after 135 days (decreased rapidly)
  BBB scale of the hind limbs: 16 to 0 points
[2]; from 125 to 135 days (decreased slowly), normal mice 21 points, control fell from 19 to 0 after 110 days
  BBB scale of the hind limbs: 21 to 16 points
[3]; oral 500 mg/kg-body weight once daily from day 60, control 3 ± 3.1
  The number of motor neurons: 24
[3]; oral 500 mg/kg-body weight once daily from day 60, control 3 ± 3.1, listed as n-BP
  The number of motor neurons: 24 ± 4.2
[4]
  protein expression level of LC3-II and pLC3-II: significantly decreased
[5]
  protein expression level of LC3-II in NSC: decrease the protein expression level of LC3-II
